Data as given in US9085555B2, “Complement pathway modulators and uses thereof” (priority 2011, dated 2015).

Biological target: Factor D (Homo sapiens (Human), UniProt P00746)
Test: biochemical
Format: biochemical
Conditions: read-out: IC50

Factor D, sequence (P00746 26-253): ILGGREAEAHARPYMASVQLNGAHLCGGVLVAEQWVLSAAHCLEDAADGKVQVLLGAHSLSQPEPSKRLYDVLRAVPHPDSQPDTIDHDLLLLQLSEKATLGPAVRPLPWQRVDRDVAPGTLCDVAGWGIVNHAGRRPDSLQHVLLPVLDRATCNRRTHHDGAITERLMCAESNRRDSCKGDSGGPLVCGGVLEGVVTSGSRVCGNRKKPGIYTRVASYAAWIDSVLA

## CCc1cc2c(C(N)=O)nn(CC(=O)N3[C@@H]4C[C@@H]4C[C@H]3C(=O)Nc3cccc(Br)n3)c2cn1 [Example 735, 1-{2-[(1R,3S,5R)-3-(6-Bromo-pyridin-2-ylcarbamoyl)-2-aza-bicyclo[3.1.0]hex-2-yl]-2-oxo-ethyl}-5-ethyl-1H-pyrazolo[3,4-c]pyridine-3-carboxylic acid amide]
  IC50: 3 nM

## NC(=O)n1cc(NC(=O)N2C[C@@H](N)C[C@H]2C(=O)NCc2cccc(Br)c2)c2ccccc21 [Example 34, (2S,4S)-4-Amino-pyrrolidine-1,2-dicarboxylic acid 2-(3-bromo-benzylamide) 1-[(1-carbamoyl-1H-indol-3-yl)-amide]]
  IC50: 90 nM

## (1R,3S,5S)-5-Hydroxymethyl- 2-aza-bicyclo[3.1.0]hexane- 2,3-dicarboxylic acid 3-(3- chloro-2-fluoro-benzylamide) 2-[(1-methylcarbamoyl-1H- indol-3-yl)-amide] [Example 265]
  IC50: 83 nM

## COC[C@@]12C[C@@H](C(=O)NCc3cccc(Cl)c3F)N(C(=O)Cc3cn(C(N)=O)c4ccccc34)[C@@H]1C2 [Example 454, 3-{2-[(1R,3S,5S)-3-(3-Chloro-2-fluoro-benzylcarbamoyl)-5-methoxymethyl-2-aza-bicyclo[3.1.0]hex-2-yl]-2-oxo-ethyl}-indole-1-carboxylic acid amide]
  IC50: 103 nM

## C[C@@]12C[C@@H](C(=O)NCc3cccc(Cl)c3F)N(C(=O)Cn3nc(C(N)=O)c4ccncc43)[C@@H]1C2 [Example 675, 1-{2-[(1R,3S,5R)-3-(3-Chloro-2-fluoro-benzylcarbamoyl)-5-methyl-2-aza-bicyclo [3.1.0]hex-2-yl]-2-oxo-ethyl}-1H-pyrazolo[3,4-c]pyridine-3-carboxylic acid amide]
  IC50: 23 nM

## NC(=O)n1cc(NC(=O)N2C[C@H](F)C[C@H]2C(=O)NCc2cncc(F)c2)c2ccccc21 [Example 215, (2S,4R)-4-Fluoro-pyrrolidine-1,2-dicarboxylic acid 1-[(1-carbamoyl-1H-indol-3-yl)-amide] 2-[(5-fluoro-pyridin-3-ylmethyl)-amide]]
  IC50: 386 nM

## C[C@@H](CNC(=O)[C@@H]1C[C@H](N)CN1C(=O)Nc1cn(C(N)=O)c2ccccc12)c1ccccc1 [Example 84, (2S,4S)-4-Amino-pyrrolidine-1,2-dicarboxylic acid 1-[(1-carbamoyl-1H-indol-3-yl)-amide] 2-[((R)-2-phenyl-propyl)-amide]]
  IC50: 6000 nM

## NC(=O)c1cn(CC(=O)N2C[C@H](F)C[C@H]2C(=O)NCc2cccc(Cl)c2F)c2cc(OCc3nn[nH]n3)ccc12 [Example 585, 1-{2-[(2S,4R)-2-(3-Chloro-2-fluoro-benzylcarbamoyl)-4-fluoro-pyrrolidin-1-yl]-2-oxo-ethyl}-6-(1H-tetrazol-5-ylmethoxy)-1H-indole-3-carboxylic acid amide]
  IC50: 17 nM

## Cc1nccc2c(C(N)=O)nn(CC(=O)N3[C@@H]4C[C@@H]4C[C@H]3C(=O)Nc3cccc(Br)n3)c12 [Example 747, 1-{2-[(1R,3S,5R)-3-(6-Bromo-pyridin-2-ylcarbamoyl)-2-aza-bicyclo[3.1.0]hex-2-yl]-2-oxo-ethyl}-7-methyl-1H-pyrazolo [3,4-c]pyridine-3-carboxylic acid amide]
  IC50: 13 nM

## CNC(=O)n1cc(NC(=O)N2[C@@H]3C[C@@H]3C[C@H]2C(=O)N[C@H](CN(C)C)c2cccc(Cl)c2F)c2ccccc21 [Example 289, (1R,3S,5R)-2-Aza-bicyclo[3.1.0]hexane-2,3-dicarboxylic acid 3-{[(S)-1-(3-chloro-2-fluoro-phenyl)-2-dimethylamino-ethyl]-amide} 2-[(1-methylcarbamoyl-1H-indol-3-yl)-amide]]
  IC50: 555 nM

## NC(=O)c1nn(CC(=O)N2[C@@H]3C[C@@H]3C[C@H]2C(=O)NCc2cccc(Cl)c2F)c2c[n+]([O-])ccc12 [Example 705, 3-Carbamoyl-1-(2-((1R,3S,5R)-3-(3-chloro-2-fluorobenzylcarbamoyl)-2-azabicyclo[3.1.0]hexan-2-yl)-2-oxoethyl)-1H-pyrazolo[3,4-c]pyridine 6-oxide]
  IC50: 21 nM

## NC(=O)n1cc(NC(=O)N2C[C@H](F)C[C@H]2C(=O)NCc2ccncc2)c2ccccc21 [Example 6, (2S,4R)-4-Fluoro-pyrrolidine-1,2-dicarboxylic acid 1-[(1-carbamoyl-1H-indol-3-yl)-amide] 2-[(pyridin-4-ylmethyl)-amide]]
  IC50: 2100 nM

## NC(=O)n1cc(NC(=O)N2C[C@@H](N)C[C@H]2C(=O)NCc2ccc(OC(F)(F)F)cc2)c2ccccc21 [Example 46, (2S,4S)-4-Amino-pyrrolidine-1,2-dicarboxylic acid 1-[(1-carbamoyl-1H-indol-3-yl)-amide] 2-(4-trifluoromethoxy-benzylamide)]
  IC50: 22800 nM

## NC(=O)n1cc(NC(=O)N2C[C@H](F)C[C@H]2C(=O)NCc2ccccc2)c2ccccc21 [Example 2, (2S,4R)-4-Fluoro-pyrrolidine-1,2-dicarboxylic acid 2-benzylamide 1-[(1-carbamoyl-1H-indol-3-yl)-amide]]
  IC50: 25 nM

## CO[C@H]1[C@@H](C(=O)NCc2cccc(Cl)c2F)N(C(=O)Cn2cc(C(C)=O)c3cccnc32)C[C@@H]1F [Example 520, (2S,3S,4S)-1-[2-(3-Acetyl-pyrrolo[2,3-b]pyridin-1-yl)-acetyl]-4-fluoro-3-methoxy-pyrrolidine-2-carboxylic acid 3-chloro-2-fluoro-benzylamide]
  IC50: 22 nM

## CC(=O)c1nn(CC(=O)N2C[C@H](F)C[C@H]2C(=O)NCc2cccc(Cl)c2F)c2cnc(C)cc12 [Example 626, (2S,4R)-1-[2-(3-Acetyl-5-methyl-pyrazolo[3,4-c]pyridin-1-yl)-acetyl]-4-fluoro-pyrrolidine-2-carboxylic acid 3-chloro-2-fluoro-benzylamide]
  IC50: 36 nM

## COc1ccc2c(NC(=O)N3C4CC4C[C@H]3C(=O)NCc3cccc(Cl)c3F)cn(C(N)=O)c2c1 (stereo partly drawn) [Example 216, (1R,3S,5R)-2-Aza-bicyclo[3.1.0]hexane-2,3-dicarboxylic acid 2-[(1-carbamoyl-6-methoxy-1H-indol-3-yl)-amide] 3-(3-chloro-2-fluoro-benzylamide)]
  IC50: 65 nM

## CC(=O)c1cn(CC(=O)N2[C@@H]3C[C@@H]3C[C@H]2C(=O)Nc2cccc(OC(F)(F)F)c2)c2ncccc12 [Example 558, (1R,3S,5R)-2-[2-(3-Acetyl-pyrrolo[2,3-b]pyridin-1-yl)-acetyl]-2-aza-bicyclo[3.1.0] hexane-3-carboxylic acid (3-trifluoromethoxy-phenyl)-amide]
  IC50: 1990 nM

## CC1(C)CC[C@@H](C(=O)NCc2cccc(Cl)c2F)N1C(=O)Nc1cn(C(N)=O)c2ccccc12 [Example 302, (S)-5,5-Dimethyl-pyrrolidine-1,2-dicarboxylic acid 1-[(1-carbamoyl-1H-indol-3-yl)-amide] 2-(3-chloro-2-fluoro-benzylamide)]
  IC50: 75 nM

## NC(=O)n1cc(NC(=O)N2[C@@H]3C[C@@H]3C[C@H]2C(=O)NCc2cccc(Cl)c2F)c2ccc(OCC(=O)O)cc21 [Example 376, (1-Carbamoyl-3-{[(1R,3S,5R)-3-(3-chloro-2-fluoro-benzylcarbamoyl)-2-aza-bicyclo[3.1.0]hexane-2-carbonyl]-amino}-1H-indol-6-yloxy)-acetic acid]
  IC50: 247 nM

## NC(=O)n1cc(CC(=O)N2CCC[C@H]2C(=O)Nc2cccc(OC(F)(F)F)c2)c2ccccc21 [Example 441, 3-{2-[(S)-2-(3-trifluoromethoxy-phenylcarbamoyl)-pyrrolidin-1-yl]-2-oxo-ethyl}-indole-1-carboxylic acid amide]
  IC50: 5620 nM

## NC(=O)n1cc(NC(=O)N2C[C@H](F)C[C@H]2C(=O)N[C@H](c2cccc(Cl)c2)C(F)(F)F)c2ccccc21 [Example 319, (2S,4R)-4-Fluoro-pyrrolidine-1,2-dicarboxylic acid 1-[(1-carbamoyl-1H-indol-3-yl)-amide] 2-{[(R)-1-(3-chloro-phenyl)-2,2,2-trifluoro-ethyl]-amide}]
  IC50: 548 nM

## NC(=O)n1cc(NC(=O)N2[C@H](C(=O)NCc3cccc(Cl)c3F)C[C@@]3(CO)C[C@@H]23)c2ccccc21 [Example 358, 1R,3S,5S)-5-Hydroxymethyl-2-aza-bicyclo[3.1.0]hexane-2,3-dicarboxylic acid 2-[(1-carbamoyl-1H-indol-3-yl)-amide]3-(3-chloro-2-fluoro-benzylamide]
  IC50: 8 nM

## COC(=O)c1cc(Br)cc(NC(=O)[C@@H]2C[C@@H](F)CN2C(=O)Nc2cn(C(N)=O)c3ccccc23)c1 [Example 153, 3-Bromo-5-{[(2S,4R)-1-(1-carbamoyl-1H-indol-3-ylcarbamoyl)-4-fluoro-pyrrolidine-2-carbamoyl]-amino}-benzoic acid methyl ester]
  IC50: 55 nM

## NC(=O)n1cc(NC(=O)N2CC[C@@H](O)[C@H]2C(=O)NCc2cnc(Cl)s2)c2ccccc21 [Example 283, (2S,3R)-3-Hydroxy-pyrrolidine-1,2-dicarboxylic acid 1-[(1-carbamoyl-1H-indol-3-yl)-amide] 2-[(2-chloro-thiazol-5-ylmethyl)-amide]]
  IC50: 900 nM

## C[C@@]1(F)C[C@@H](C(=O)NCc2cccc(Cl)c2F)N(C(=O)Nc2cn(C(N)=O)c3ccc(OCCO)cc23)C1 [Example 383, 2S,4R)-4-Fluoro-4-methyl-pyrrolidine-1,2-dicarboxylic acid 1-{[1-carbamoyl-5-(2-hydroxy-ethoxy)-1H-indol-3-yl]-amide}2-(3-chloro-2-fluoro-benzylamide]
  IC50: 4 nM

## NC(=O)n1cc(NC(=O)N2C[C@@H](N)C[C@H]2C(=O)NCC2CCCCC2)c2ccccc21 [Example 74, (2S,4S)-4-Amino-pyrrolidine-1,2-dicarboxylic acid 1-[(1-carbamoyl-1H-indol-3-yl)-amide] 2-cyclohexylmethyl-amide]
  IC50: 3650 nM

## NC(=O)n1cc(NC(=O)N2C[C@H](F)C[C@H]2CNS(=O)(=O)c2ccccc2)c2ccccc21 [Example 105, 3-{[(2S,4R)-2-(Benzenesulfonylamino-methyl)-4-fluoro-pyrrolidine-1-carbonyl]-amino}-indole-1-carboxylic acid amide]
  IC50: 800 nM

## Cc1ccnc(CNC(=O)[C@@H]2C[C@@H](F)CN2C(=O)Nc2cn(C(N)=O)c3ccccc23)c1F [Example 304, (2S,4R)-4-Fluoro-pyrrolidine-1,2-dicarboxylic acid 1-[(1-carbamoyl-1H-indol-3-yl)-amide] 2-[(3-fluoro-4-methyl-pyridin-2-ylmethyl)-amide]]
  IC50: 653 nM
